Results: patent US20110038885A1, “CHEMOKINE ANALOGS” (priority 2007, published 2011)
Bridge positions count the residues as written; N and C are the ends. Square brackets hold non-standard residues; d marks the D form. Peptide text beside a SMILES is read from it. dDap = NC[C@@H](N)C(=O)O; Dab = NCC[C@H](N)C(=O)O

Key:
MCP-1 = assay: In vitro chemotaxis (trans-well migration) v MCP-1; type: cell-based, human
Summary of the method: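 Trans-well migration toward IL-8 or MCP-1 placed below, with agent added to THP-1 cells (10^4-10^6) in the top well and incubation at 37° C (e.g. 4 hours). MTT absorbance at 595 nm, interpolated on a cell standard curve, gives migrated cell numbers; TGFβ-type negative control and cytotoxicity check included.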

IL-8 = assay: In vitro chemotaxis, inhibition v IL-8; type: cell-based, human; set-up: concentration or dose not given beside the values
Description: To determine whether an agent inhibits a chemokine-induced activity, such as macrophage recruitment, varying amounts of the agent are mixed with cells in the presence of a known chemoattractant. For example, a range of known concentrations of an agent, e.g., a chemokine peptide, is incubated with a defined number (e.g., 10^4-10^6) of human THP-1 monocyte cells in individual wells of the top compartment of a trans-well plate. Chemokine, at a concentration known to cause significant migration of THP-1 cells in the trans-well migration assay, is placed in the lower compartment of a trans-well plate. Cells are then incubated at 37° C. for a period sufficient to allow migration, e.g., 4 hours. After incubation, the cells are gently removed from the top of the filter with a pipette, 20 μl of 20 mM EDTA in simple PBS is added into each top well, and incubated for 20 minutes at 4° C. The filter is carefully flushed with media using a gentle flow, and removed. A standard curve consisting of a two-fold dilution series of THP-1 cells (in 29 μl) is placed to accurately quantify the number of cells that have migrated. Migrated cells are stained with 3 μl of MTT stock dye solution which is added directly into each well (5 mg/ml in RPMI-1640 without phenol red) (Sigma Chemical Co., St. Louis, Mo., USA) and incubated at 37° C. for 4 hours. The media is carefully aspirated from each well, and the converted dye is solubilized by 20 μl of DMSO. Absorbance of converted dye is measured at a wavelength of 595 nm using an ELISA plate reader. The number of migrated cells in each well is then determined by interpolation of the standard curve (see also Imai et al., J. Biol. Chem., 272:15036, 1997). Any method suitable for counting cells can be used, for example, counting with a hemocytometer, incubation of the cells with MTT (see above), or FACS analysis. A negative control assay is also performed, using TGFβ or another non-chemokine chemoattractant (e.g., IL1β or TNFα). To assess whether the agent is cytotoxic, the same concentrations of agent are incubated with THP-1 cells. Agents which 1) are not cytotoxic at levels which inhibit migration, 2) are ineffective at inhibiting the negative control-induced migration, and 3) reduce or inhibit chemokine-induced THP-1 migration, are agents which fall within the scope of the invention.

EC50 (MCP-1) [nM] | Compound | v IL-8 inhibition (%) (IL-8)
10 | CC[C@H](C)[C@@H]1NC(=O)[C@H](Cc2c[nH]c3ccccc23)NC(=O)[C@H](CCCCN)NC(=O)[C@H](CCC(N)=O)NC(=O)[C@H](CCCCN)NC(=O)[C@@H]2CCCN2C(=O)[C@H](CC(=O)O)NC(=O)[C@@H](NC(=O)[C@@H](N)CC(C)C)CSSC[C@@H](C(N)=O)NC(=O)[C@H](CCC(N)=O)NC1=O [Example 10, Leu-c(Cys-Asp-Pro-Lys-Gln-Lys-Trp-Ile-Gln-Cys)-NH2] (H-LCDPKQKWIQC-NH2; disulfide 2-11) | 102.2
330 | CC[C@H](C)[C@@H]1NC(=O)[C@H](Cc2c[nH]c3ccccc23)NC(=O)[C@H](CCCCN)NC(=O)[C@H](CCC(N)=O)NC(=O)[C@H](CCCCN)NC(=O)[C@@H]2CCCN2C(=O)[C@@H](NC(=O)[C@H](CC(=O)O)NC(=O)[C@@H](N)CC(C)C)CSSC[C@@H](C(N)=O)NC(=O)[C@H](CCC(N)=O)NC1=O [Example 11, Leu-Asp-c(Cys-Pro-Lys-Gln-Lys-Trp-Ile-Gln-Cys)-NH2] (H-LDCPKQKWIQC-NH2; disulfide 3-11) | 38.1
50 | CC[C@H](C)[C@@H]1NC(=O)[C@H](Cc2c[nH]c3ccccc23)NC(=O)[C@H](CCCCN)NC(=O)[C@@H](NC(=O)[C@H](CCC(N)=O)NC(=O)[C@H](CCCCN)NC(=O)[C@@H]2CCCN2C(=O)[C@H](CC(=O)O)NC(=O)[C@@H](N)CC(C)C)CSSC[C@@H](C(N)=O)NC(=O)[C@H](CCC(N)=O)NC1=O [Example 12, Leu-Asp-Pro-Lys-Gln-c(Cys-Lys-Trp-Ile-Gln-Cys)-NH2] (H-LDPKQCKWIQC-NH2; disulfide 6-11) | 94.8
8000 | CC[C@H](C)[C@@H]1NC(=O)[C@H](Cc2c[nH]c3ccccc23)NC(=O)[C@@H](NC(=O)[C@H](CCCCN)NC(=O)[C@H](CCC(N)=O)NC(=O)[C@H](CCCCN)NC(=O)[C@@H]2CCCN2C(=O)[C@H](CC(=O)O)NC(=O)[C@@H](N)CC(C)C)CSSC[C@@H](C(N)=O)NC(=O)[C@H](CCC(N)=O)NC1=O [Example 13, Leu-Asp-Pro-Lys-Gln-Lys-c(Cys-Trp-Ile-Gln-Cys)-NH2] (H-LDPKQKCWIQC-NH2; disulfide 7-11) | 5.8
2000 | CC[C@H](C)[C@@H]1NC(=O)[C@@H](NC(=O)[C@H](Cc2c[nH]c3ccccc23)NC(=O)[C@H](CCCCN)NC(=O)[C@H](CCC(N)=O)NC(=O)[C@H](CCCCN)NC(=O)[C@@H]2CCCN2C(=O)[C@H](CC(=O)O)NC(=O)[C@@H](N)CC(C)C)CSSC[C@@H](C(N)=O)NC(=O)[C@H](CCC(N)=O)NC1=O [Example 14, Leu-Asp-Pro-Lys-Gln-Lys-Trp-c(Cys-Ile-Gln-Cys)-NH2] (H-LDPKQKWCIQC-NH2; disulfide 8-11) | 10.5
3000 | CC[C@H](C)[C@@H]1NC(=O)[C@@H](NC(=O)[C@H](Cc2c[nH]c3ccccc23)NC(=O)[C@@H](N)CCCCN)CSSC[C@@H](C(N)=O)NC(=O)[C@H](CCC(N)=O)NC1=O [Example 15, Lys-Trp-c(Cys-Ile-Gln-Cys)-NH2] (H-KWCIQC-NH2; disulfide 3-6) | 10.5
800 | CC[C@H](C)[C@@H]1NC(=O)[C@H](Cc2c[nH]c3ccccc23)NC(=O)[C@H](CCCCN)NC(=O)[C@H](CCC(N)=O)NC(=O)[C@H](CCCCN)NC(=O)[C@@H]2CCCN2C(=O)[C@H](CC(=O)O)NC(=O)[C@H](CC(C)C)NC(=O)[C@@H](NC(C)=O)CSSC[C@@H](C(=O)N[C@H](CN)C(N)=O)NC(=O)[C@H](CCC(N)=O)NC1=O [Example 16, Ac-c(Cys-Leu-Asp-Pro-Lys-Gln-Lys-Trp-Ile-Gln-Cys)-D-Dap-NH2] (Ac-CLDPKQKWIQC[dDap]-NH2; disulfide 1-11) | 19.8
> 1000 | CC[C@H](C)[C@@H]1NC(=O)[C@H](Cc2c[nH]c3ccccc23)NC(=O)[C@H](CCCCN)NC(=O)[C@H](CCC(N)=O)NC(=O)[C@H](CCCCN)NC(=O)[C@@H]2CCCN2C(=O)[C@H](CC(=O)O)NC(=O)[C@H](CC(C)C)NC(=O)[C@@H](NC(=O)[C@H](CC(=O)O)NC(C)=O)CSSC[C@@H](C(=O)N[C@H](CN)C(N)=O)NC(=O)[C@H](CCC(N)=O)NC1=O [Example 17, Ac-Asp-c(Cys-Leu-Asp-Pro-Lys-Gln-Lys-Trp-Ile-Gln-Cys)-D-Dap-NH2] (Ac-DCLDPKQKWIQC[dDap]-NH2; disulfide 2-12) | 15.5
20 | CC[C@H](C)[C@@H]1NC(=O)[C@H](Cc2c[nH]c3ccccc23)NC(=O)[C@H](CCCCN)NC(=O)[C@H](CCC(N)=O)NC(=O)[C@H](CCCCN)NC(=O)[C@@H]2CCCN2C(=O)[C@H](CC(=O)O)NC(=O)[C@H](CC(C)C)NC(=O)[C@@H](NC(C)=O)CSSC[C@@H](C(=O)N[C@@H](CCN)C(N)=O)NC(=O)[C@H](CCC(N)=O)NC1=O [Example 18, Ac-c(Cys-Leu-Asp-Pro-Lys-Gln-Lys-Trp-Ile-Gln-Cys)-Dab-NH2] (Ac-CLDPKQKWIQC[Dab]-NH2; disulfide 1-11) | 103.5
900 | CC[C@H](C)[C@@H]1NC(=O)[C@H](Cc2c[nH]c3ccccc23)NC(=O)[C@H](CCCCN)NC(=O)[C@H](CCC(N)=O)NC(=O)[C@@H](NC(=O)[C@H](CCCCN)NC(=O)[C@@H]2CCCN2C(=O)[C@H](CC(=O)O)NC(=O)[C@H](CC(C)C)NC(C)=O)CSSC[C@@H](C(N)=O)NC(=O)[C@H](CCC(N)=O)NC1=O [Example 22, Ac-Leu-Asp-Pro-Lys-c(Cys-Gln-Lys-Trp-Ile-Gln-Cys)-NH2] (Ac-LDPKCQKWIQC-NH2; disulfide 5-11) | 16.8
> 1000 | CC[C@H](C)[C@@H]1NC(=O)[C@H](Cc2c[nH]c3ccccc23)NC(=O)[C@H](CCCCN)NC(=O)[C@@H](NC(=O)[C@H](CCC(N)=O)NC(=O)[C@H](CCCCN)NC(=O)[C@@H]2CCCN2C(=O)[C@H](CC(=O)O)NC(=O)[C@H](CC(C)C)NC(C)=O)CSSC[C@@H](C(N)=O)NC(=O)[C@H](CCC(N)=O)NC1=O [Example 23, Ac-Leu-Asp-Pro-Lys-Gln-c(Cys-Lys-Trp-Ile-Gln-Cys)-NH2] (Ac-LDPKQCKWIQC-NH2; disulfide 6-11) | 13.4
200 | CC[C@H](C)[C@@H]1NC(=O)[C@H](Cc2c[nH]c3ccccc23)NC(=O)[C@H](CCCCN)NC(=O)[C@H](CCC(N)=O)NC(=O)[C@H](CCCCN)NC(=O)[C@@H]2CCCN2C(=O)[C@H](CC(=O)O)NC(=O)[C@H](CC(C)C)NC(=O)[C@@H](NC(C)=O)CSSC[C@@H](C(N)=O)NC(=O)[C@@H](CCC(N)=O)NC1=O [Example 24, Ac-c(Cys-Leu-Asp-Pro-Lys-Gln-Lys-Trp-Ile-D-Gln-Cys)-NH2] (Ac-CLDPKQKWI[dQ]C-NH2; disulfide 1-11) | 33.8
30 | CC[C@@H](C)[C@H]1NC(=O)[C@H](Cc2c[nH]c3ccccc23)NC(=O)[C@H](CCCCN)NC(=O)[C@H](CCC(N)=O)NC(=O)[C@H](CCCCN)NC(=O)[C@@H]2CCCN2C(=O)[C@H](CC(=O)O)NC(=O)[C@H](CC(C)C)NC(=O)[C@@H](NC(C)=O)CSSC[C@@H](C(N)=O)NC(=O)[C@H](CCC(N)=O)NC1=O [Example 25, Ac-c(Cys-Leu-Asp-Pro-Lys-Gln-Lys-Trp-D-Ile-Gln-Cys)-NH2] (Ac-CLDPKQKW[dI]QC-NH2; disulfide 1-11) | 96.9
